From patent publication US20020143059A1, “Skin care product containing retinoids, retinoid booster and phytoestrogens in a dual compartment package” (priority 2000, published 2002)
Where two headings read alike, the source gives them in different places. Values belong to the compound of their own block, whether it stands above or below them.

Tests used:
[1] = system: retinoic acid oxidation (cytochrome P450 systems); experiment: Assay for NADPH Dependent Retinoic Acid Oxidation, liver microsomes; assay type: biochemical, rat; conditions: for % Inhibition Retinoic Acid (10 μM): 10 μM compound; for % Inhibition Retinoic Acid (100 μM): 100 μM compound
[2] = biological target: TGase I; experiment: Transglutaminase (TGase I ELISA) assay in cultured keratinocytes; assay type: cell-based; conditions: for IC50: booster in combination with a constant retinol concentration of 10^−7M, read-out: Overall TG (IC 50); for % Inhibition Overall TG (−ROH/RE): added effect of booster+retinol induced TGase inhibition over retinol alone
[3] = Retinol stability in the presence of phytoestrogenic flavonoids (OD 360 nm); assay type: physicochemical
Procedure: Retinol was dissolved as a 10% solution in aqueous ethanol (1:1 water:ethanol). This solution was diluted to 0.001% approximately 30 μM). This solution gave an OD of about 0.35 absorption unit at 360 nm in a 96 well plate spectrophotometer.
Aqueous ethanolic stock solutions of the genistein, daidzein were prepared as 0.1%, 0.01% or 0.001%. To 200 μl of 0.001% retinol solution in a 96 well plate was added 20 μl of the flavonoid (i.e. 1-10 dilution) giving a final flavonoid concentration of 0.01, 0.001 and 0.0001%. The plates were mixed and an initial OD reading was taken at 360 nm. The plates were incubated at room temperature in the dark for up to 2 days and subsequent readings were taken at 8, 24 and 48 hours. The OD readings at these time points were normalized to the 0 time point reading. The retinol stability was expressed as % of retinol (OD reading) at 0 time. The data is shown in example 5.
Example 5: The following tables show the effect of genistein and daidzein on destabilizing retinol. The experiment was done as described in methods section. The OD readings from duplicate measurements were averaged and given here.

[4] = system: CRABP-II; experiment: CRABP-II expression in adult fibroblasts (dot blot); assay type: cell-based, human; conditions: for % as Control: control as 100%
[5] = Retinol stability in the presence of boosters (OD 360 nm); assay type: physicochemical; conditions: booster approximately 0.1%, 60 hours at room temperature in the dark, approx. 50% aqueous ethanol
Procedure: Retinol (50% in tween 80) was dissolved in approximately 50% aqueous ethanol to provide a solution giving an OD at 360 nm of approximately 0.6 when measured in a 200 μl volume in a 96 well plate using a standard 96 well spectrophotometer.
Booster molecules were added at approximately 0.1% concentration and the OD 360 measured as above immediately and after 60 hours at room temperature in the dark. A correction was applied to the OD after 60 hours (divide by 0.85) to account for increased concentration of the retinol due to evaporation of solvent from the plate.

[6] = biological target: T1, LRAT (Bos taurus, UniProt Q9BGL2); experiment: Assay for LRAT activity, RPE microsomes; assay type: biochemical, bovine; conditions: for % Inhibition LRAT (100 μm): 100 μm compound; for % Inhibition LRAT (10 μm): 10 μm compound
T1 construct: followed by approximately 15 μg of RPE microsomal protein; tissue W. L. Lawson Co., Lincoln, Nebr; host or cells: bovine retinal pigment epithelium microsomes
T1 sequence (Q9BGL2 1-230): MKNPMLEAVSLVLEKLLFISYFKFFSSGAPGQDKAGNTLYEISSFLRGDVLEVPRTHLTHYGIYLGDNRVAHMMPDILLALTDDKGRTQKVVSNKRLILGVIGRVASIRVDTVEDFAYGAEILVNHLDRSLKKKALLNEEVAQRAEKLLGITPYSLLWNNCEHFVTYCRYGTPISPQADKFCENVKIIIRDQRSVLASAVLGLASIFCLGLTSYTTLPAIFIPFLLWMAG

[7] = system: Retinal Reductase; experiment: Assay for Retinal Reductase Activity, liver microsomes; assay type: biochemical, rat; conditions: test compound final 100 μM (method)
[8] = system: ARAT; experiment: Assay for ARAT activity, RPE microsomes; assay type: biochemical, bovine; conditions: for % Inhibition ARAT (100 μm): 100 μm compound; for % Inhibition ARAT (10 μm): 10 μm compound
[9] = 100 nM retinoid alone, 48 hours

Compound: O=c1c(-c2ccc(O)cc2)coc2cc(O)ccc12 [Daidzein]
Retinol stability, % of retinol (OD reading) at 0 time ([3]; 8 h, 0.0001 %): 82%
Retinol stability, % of retinol (OD reading) at 0 time ([3]; 24 h, 0.0001 %): 78%
Retinol stability, % of retinol (OD reading) at 0 time ([3]; 48 h, 0.0001 %): 76%
CRABP-II production ([4]; 1 μM phytoestrogen alone): 1.49+/−0.66
% as Control ([4]; 1 μM phytoestrogen alone): 513+/−227%

Compound: COCAMIDE DEA
FOLD INCREASE IN RATE OF RETINOL LOSS [5]: 1.9 fold

Compound: CCCCCCCCCCCCCCCC(=O)OC/C=C(C)/C=C/C=C(C)/C=C/C1=C(C)CCCC1(C)C [Retinyl Palmitate]
CRABP-II production [4, 9]: 1.26+/−0.51
% as Control ([4]; 100 nM retinoid alone): 434+/−177%

Compound: CCCCCCCCCCC(O)C(=O)NCCO (stereo not drawn) [Hydroxyethyl-2-Hydroxy-C12 Amide]
IC50 [2]: 32.9 µM
% Inhibition LRAT (100 μm) [6]: 35%

Compound: Clc1ccc(COC(Cn2ccnc2)c2ccc(Cl)cc2Cl)c(Cl)c1 (stereo not drawn) [Miconazole]
% Inhibition Retinoic Acid (10 μM) [1]: 74%
% Inhibition Retinoic Acid (100 μM) [1]: 86%

Compound: O=c1c2cccc3cccc(c32)c2nc3ccccc3n12 [(7H-Benzimidazo[2,1-a]Benz[de]-Isoquinolin-7-one]
IC50 [2]: 0.859 µM

Compound: O=c1c(-c2ccc(O)cc2)coc2cc(O)cc(O)c12 [Genistein]
effect of flavonoid on instability of retinol ([3]; up to 48 hours): marked increases in the instability of retinol
stimulation of CRABP-II ([4]; 1 μM alone): stimulated CRABP-II significantly
CRABP-II production ([4]; 1 μM phytoestrogen alone): 1.9+/−0.71
% as Control ([4]; 1 μM phytoestrogen alone): 655+/−247%

Compound: Oc1cccc2cccnc12 [8 OH QUINOLINE]
FOLD INCREASE IN RATE OF RETINOL LOSS [5]: 1.5 fold

Compound: O=c1c(O)c(-c2ccc(O)c(O)c2)oc2cc(O)cc(O)c12 [Quercetin]
% Inhibition Retinoic Acid (10 μM) [1]: 40%
% Inhibition Retinoic Acid (100 μM) [1]: 74%

Compound: CCCCC/C=C\C/C=C\CCCCCCCC(=O)NCCO [Linoleoyl Monoethanolamide]
IC50 [2]: 16.1 µM

Compound: Clc1ccc(COC(Cn2ccnc2)c2ccc(Cl)cc2Cl)cc1 (stereo not drawn) [Econazole]
% Inhibition Retinoic Acid (10 μM) [1]: 88%
% Inhibition Retinoic Acid (100 μM) [1]: 100%

Compound: Hydroxyquinoline (Carbostyril)
IC50 [2]: 364 µM

Compound: CC1(C)[C@@H](OC(=O)CCC(=O)O)CC[C@]2(C)[C@H]3C(=O)C=C4[C@@H]5C[C@@](C)(C(=O)O)CC[C@]5(C)CC[C@@]4(C)[C@]3(C)CC[C@@H]12 [Carbenoxolone, reference compound]
% Inhibition Retinal Reductase [7]: 26% +/− 2

Compound: CCCCCCCCCCCCC/C=C/[C@@H](O)[C@H](CO)NC(C)=O [Acetyl Sphingosine]
IC50 [2]: 6.78 µM
% Inhibition LRAT (10 μm) [6]: 10% +/− 10
% Inhibition LRAT (100 μm) [6]: 50% +/− 18
% Inhibition ARAT (10 μm) [8]: 19% +/− 12
% Inhibition ARAT (100 μm) [8]: 62% +/− 11

Compound: CC(=O)OC/C=C(C)/C=C/C=C(C)/C=C/C1=C(C)CCCC1(C)C [Retinyl Acetate]
CRABP-II production [4, 9]: 0.60+/−0.32
% as Control ([4]; 100 nM retinoid alone): 209+/−118%

Compound: CC1=C(/C=C/C(C)=C/C=C/C(C)=C/C(=O)O)C(C)(C)CCC1 [Retinoic acid, reference compound]
CRABP-II production ([4]; 1 nM retinoid alone, 48 hours): 0.97+/−0.47
% as Control ([4]; 1 nM retinoid alone): 335+/−162%
CRABP-II production ([4]; 10 nM retinoid alone, 48 hours): 1.24+/−0.29
% as Control ([4]; 10 nM retinoid alone): 428+/−101%

Compound: CC(=O)/C=C/C1C(C)=CCCC1(C)C (stereo not drawn) [Alpha=Ionone]
IC50 [2]: 927 µM
FOLD INCREASE IN RATE OF RETINOL LOSS [5]: 1.3 fold

Compound: CCCCC/C=C\C/C=C\CCCCCCCC(=O)OC/C=C(C)/C=C/C=C(C)/C=C/C1=C(C)CCCC1(C)C [Retinyl Linoleate]
CRABP-II production [4, 9]: 0.52+/−0.3
% as Control ([4]; 100 nM retinoid alone): 181+/−110%

Compound: CCCCC/C=C\C/C=C\CCCCCCCC(=O)N(CCO)CCO [Linoleoyl Diethanolamide]
% Inhibition Overall TG (−ROH/RE) [2]: 59%
% Inhibition LRAT (10 μm) [6]: 11% +/− 9
% Inhibition LRAT (100 μm) [6]: 51% +/− 15
FOLD INCREASE IN RATE OF RETINOL LOSS [5]: 3.0 fold

Second part, led by results:

% Inhibition Retinoic Acid (10 μM) [1]: 80%
% Inhibition Retinoic Acid (100 μM) [1]: 92%
Compound: CC(C)(C)C(=O)C(Oc1ccc(Cl)cc1)n1ccnc1 (stereo not drawn) [Climbazole]

IC50 [2]: 32.5 µM
Compound: Castor Oil MEA

IC50 [2]: 0.467 µM
Compound: CCCCCCCCCCCC1=NCCN1CCO [Lauryl Hydroxyethylimidazoline]

% Inhibition Retinoic Acid (100 μM) [1]: 47%
Compound: CC(C)(C(=O)c1cccnc1)c1cccnc1 [2-Methyl-1,2-di-3-Pyridyl-1-Propane]

% Inhibition Retinal Reductase [7]: 26%
Compound: CCCCCCCCCCCCCC(=O)O [Myristic Acid]

% Inhibition Overall TG (−ROH/RE) [2]: 22%
FOLD INCREASE IN RATE OF RETINOL LOSS [5]: 1.4 fold
Compound: CN1CCN(C)C1=O [Dimethyl Imidazolidinone]

IC50 [2]: 28 µM
Compound: CCCCCCCC/C=C\CCCCCCCC[N+](C)(C)CC(=O)[O-] [Oleyl Betaine]
% Inhibition ARAT (100 μm) [8]: 47%

FOLD INCREASE IN RATE OF RETINOL LOSS [5]: 1.3 fold
Compound: CC(C)=CCC/C(C)=C/CO [Geraniol]
% Inhibition ARAT (10 μm) [8]: 13%
% Inhibition ARAT (100 μm) [8]: 32%

IC50 [2]: 30.2 µM
Compound: CCCCCCCC/C=C\CCCCCCCC1=NCCN1CCO [Oleyl Hydroxyethylimidazoline]

% Inhibition Retinoic Acid (10 μM) [1]: 84%
% Inhibition Retinoic Acid (100 μM) [1]: 84%
Compound: CC(=O)N1CCN(c2ccc(OCC3COC(Cn4ccnc4)(c4ccc(Cl)cc4Cl)O3)cc2)CC1 (stereo not drawn) [Ketoconazole]

retinol degraded ([3]; 8 h, 0.001 %): 8%
Retinol stability, % of retinol (OD reading) at 0 time ([3]; 24 h, 0.001 %): 86%
retinol degraded ([3]; 24 h, 0.001 %): 14%
Retinol stability, % of retinol (OD reading) at 0 time ([3]; 48 h, 0.001 %): 81%
retinol degraded ([3]; 48 h, 0.001 %): 19%
Compound: CC1=C(/C=C/C(C)=C/C=C/C(C)=C/CO)C(C)(C)CCC1 [Retinol]

IC50 [2]: 335 µM
% Inhibition LRAT (10 μm) [6]: 87% +/− 6
% Inhibition LRAT (100 μm) [6]: 98% +/− 1
Compound: C/C=C\C(=O)C1C(C)=CCCC1(C)C (stereo not drawn) [Alpha-Damascone]

IC50 ([2]; Keratinocyte): 8.64 µM
FOLD INCREASE IN RATE OF RETINOL LOSS [5]: 1.6 fold
Compound: CC1(C)[C@@H](O)CC[C@]2(C)[C@H]3C(=O)C=C4[C@@H]5C[C@@](C)(C(=O)O)CC[C@]5(C)CC[C@@]4(C)[C@]3(C)CC[C@@H]12 [Glycyrretinic Acid]

% Inhibition Retinoic Acid (10 μM) [1]: 76%
Compound: Clc1ccccc1C(c1ccccc1)(c1ccccc1)n1ccnc1 [Clotrimazole]

IC50 [2]: 99.9 µM
% Inhibition LRAT (100 μm) [6]: 37% +/− 9
Compound: CCCCCCCCCCCCC/C=C/[C@@H](O)[C@H](CO)NC(=O)CCCCC [Hexanoyl Sphingosine]

FOLD INCREASE IN RATE OF RETINOL LOSS [5]: 3.4 fold
% Inhibition Retinal Reductase [7]: 62% +/− 2
Compound: CCCCC/C=C\C/C=C\CCCCCCCC(=O)O [Linoleic Acid]

FOLD INCREASE IN RATE OF RETINOL LOSS [5]: 3.1 fold
Compound: CC(C)=CCCC(C)=CC=O [Citral]
% Inhibition ARAT (100 μm) [8]: 20%

% Inhibition Retinoic Acid (10 μM) [1]: 89%
% Inhibition Retinoic Acid (100 μM) [1]: 100%
Compound: c1ccc(-c2ccc(C(c3ccccc3)n3ccnc3)cc2)cc1 (stereo not drawn) [Bifonazole]

% Inhibition Retinal Reductase [7]: 6%
Compound: COc1cc(C=O)ccc1O [Vanillin]

FOLD INCREASE IN RATE OF RETINOL LOSS [5]: 3.7 fold
Compound: DAMASCONE

FOLD INCREASE IN RATE OF RETINOL LOSS [5]: 2.6 fold
Compound: CCCCCCCCCCCC(=O)N(C)CC(=O)O [Lauroyl Sarcosine]
% Inhibition ARAT (100 μm) [8]: 20%

FOLD INCREASE IN RATE OF RETINOL LOSS [5]: 1.4 fold
Compound: O=c1ccc2ccccc2o1 [COUMARIN]
